Measurements taken from PubChem BioAssay (NCI).
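These data come from cells grown in 96-well plates and exposed to compound for 48 hours at five concentrations. GI50 marks 50% less growth. TGI: concentration producing complete growth inhibition.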

Legend:
Assay in all cases: inhibition of tumour cell growth, NCI panel, 48 h
MALME-3M melanoma = test system: MALME-3M melanoma
HOP-92 NSCLC = test system: HOP-92 NSCLC
SF-295 CNS = test system: SF-295 CNS
EKVX NSCLC = test system: EKVX NSCLC
MDA-MB-435 = test system: MDA-MB-435
COLO 205 colon = test system: COLO 205 colon
U251 CNS = test system: U251 CNS
SR leukemia = test system: SR leukemia
RPMI-8226 leukemia = test system: RPMI-8226 leukemia
TK-10 renal = test system: TK-10 renal
OVCAR-5 ovarian = test system: OVCAR-5 ovarian
HCT-116 colon = test system: HCT-116 colon
CAKI-1 renal = test system: CAKI-1 renal
MCF7 breast = test system: MCF7 breast
SK-MEL-5 melanoma = test system: SK-MEL-5 melanoma
SN12C renal = test system: SN12C renal
CCRF-CEM leukemia = test system: CCRF-CEM leukemia
SNB-75 CNS = test system: SNB-75 CNS
SNB-19 CNS = test system: SNB-19 CNS
NCI-H522 lung = test system: NCI-H522 lung
OVCAR-3 ovarian = test system: OVCAR-3 ovarian
ACHN renal = test system: ACHN renal
BT-549 breast = test system: BT-549 breast
A498 renal = test system: A498 renal
DU-145 prostate = test system: DU-145 prostate
OVCAR-8 ovarian = test system: OVCAR-8 ovarian
RXF 393 renal = test system: RXF 393 renal
MOLT-4 leukemia = test system: MOLT-4 leukemia
HCT-15 colon = test system: HCT-15 colon

## Clc1cccc(CNc2c3ccccc3nc3ccccc23)c1
MALME-3M melanoma
  GI50: 1610 nM
  TGI: 3020 nM
HOP-92 NSCLC
  GI50: 1120 nM
  TGI: 3820 nM
SF-295 CNS
  GI50: 1510 nM
  TGI: 3080 nM
EKVX NSCLC
  GI50: 2760 nM
  TGI: 11200 nM
MDA-MB-435
  GI50: 1670 nM
  TGI: 3130 nM
COLO 205 colon
  GI50: 1540 nM
  TGI: 3880 nM
U251 CNS
  GI50: 2000 nM
  TGI: 4560 nM
SR leukemia
  GI50: 1470 nM
  TGI: 4550 nM
RPMI-8226 leukemia
  GI50: 1740 nM
  TGI: 4180 nM
TK-10 renal
  GI50: 2950 nM
  TGI: 8990 nM
OVCAR-5 ovarian
  GI50: 2060 nM
  TGI: 6540 nM
HCT-116 colon
  GI50: 1350 nM
  TGI: 3410 nM
CAKI-1 renal
  GI50: 1670 nM
  TGI: 4820 nM
MCF7 breast
  GI50: 1620 nM
  TGI: 3530 nM
SK-MEL-5 melanoma
  GI50: 1720 nM
  TGI: 3130 nM
SN12C renal
  GI50: 2360 nM
  TGI: 11000 nM
CCRF-CEM leukemia
  GI50: 2310 nM
  TGI: 8770 nM
SNB-75 CNS
  GI50: 1760 nM
  TGI: 6440 nM
SNB-19 CNS
  GI50: 2890 nM
  TGI: 12400 nM
NCI-H522 lung
  GI50: 1880 nM
  TGI: 4890 nM
OVCAR-3 ovarian
  GI50: 2100 nM
  TGI: 4560 nM
ACHN renal
  GI50: 1590 nM
  TGI: 3660 nM
BT-549 breast
  GI50: 2340 nM
  TGI: 7190 nM
A498 renal
  GI50: 1300 nM
  TGI: 2670 nM
DU-145 prostate
  GI50: 2570 nM
  TGI: 7170 nM
OVCAR-8 ovarian
  GI50: 2410 nM
  TGI: 8930 nM
RXF 393 renal
  GI50: 1350 nM
  TGI: 2850 nM
MOLT-4 leukemia
  GI50: 2510 nM
  TGI: 10700 nM
HCT-15 colon
  GI50: 1880 nM
